Laboratory results from paper PMC6309140, “Synthesis and Evaluation of a New Type of Small Molecule Epigenetic Modulator Containing Imidazo[1,2-b][1,2,4]triazole Motif” (Frontiers in Chemistry, 2018).

Columns and labels:
[1] = Water solubility (qualitative remark); type: physicochemical; settings: 14b vs. 14a
[2] = test system: EGFP reporter gene silenced by DNA methylation (B2-17 cells); test: Compound effective assay: derepression of EGFP reporter in B2-17 reporter cells (image-based, titration); type: cell-based; settings: for Emax: 72 h, read-out: Maximal RGFP% (maximal percentage of EGFP+ cells in the dose-response curve); for Emax / EC50: B2-17 cells, 72 h treatment; for EC50: dose-response of EGFP+ cells, read-out: EC50 (relative half maximal effect concentration)
Text: (§1) To identify novel small molecules targeting gene repression, we devised an image-based high-throughput screening system using the engineered HEK 293 F cell (termed as B2-17 cells) as report cell line. A chemical library containing 308,251 small molecules was screened in this system. Purposed for unbiased compound screening, this library had been used in a variety of studies (Sun et al., [2012]; Wang et al., [2013]; Dong et al., [2015]; Li et al., [2016]). Hundred and fifty eight compounds which reactivated reporter genes in more than half of cells were selected as hits. Next, we performed titration experiments for all these hits in the B2-17 cell line. The efficacy of each compound was evaluated by its maximal percentage of EGFP^+ cells in the dose-response curve (maximal RGFP) and relative half maximal effect concentration (EC50). The toxicity of the hits was also tested in parallel, measured by number of viable cells in each treatment. The assay is based on quantitative analysis of ATP, an indicator of metabolically active cells. For each compound, we calculated the relative half maximal growth inhibitory concentration (IC50), based on the abovementioned assay.
Procedure for cell culture and establishment of the reporter cell line were reported in our previously published paper (Li et al., [2018]).
Before plating cells, 384-well plates (ViewPlate, PerkinElmer) were coated with PDL (poly-D-lysine, Sigma). For each well, 1,300 B2-17 cells were plated by using a Matrix Wellmate microplate dispenser (Thermo Scientific). Then, 0.25 μL of compound was added to each well by using a versatile pipetting robot, the Biomek FX workstation (Beckman Coulter), to give a final compound concentration of 5 μM. After treatment for 72 h, the cell nuclei were stained by Hoechst 33342 (Sigma) before imaging.
The cells were imaged with Opera LX (PerkinElmer, three views per well by using 10 x (air) objective lens). Images were analyzed with the Columbus system, the mean percentage of EGFP+ cells (RGFP) was obtained to extrapolate the number of EGFP expressing cells and Hoechst-stained nuclei.
For the titration assay, the positive compounds were diluted in DMSO at concentrations ranging from 0.625 to 4 mM. Then, the B2-17 cells were treated by gradient compound and imaged as described before.
For each compound, a dose-response series was generated by using Origin 6.0 Pro software. The dot plot was fit by a DoseResp curve and then the EC50 was calculated.

HEK 293 F cells = test: Viability assays (CellTiter-Glo, ATP); type: cell-based; settings: HEK293F, 72 h; viable cells by ATP quantitation, 3 days incubation; Figure 2 says B2-17 cells, method says HEK 293 F cells; read-out: IC50 (relative half maximal growth inhibitory concentration)
Text: as §1
HEK 293 F cells were plated in 384-well, flat-bottom, tissue culture dishes (Corning) and treated with compounds, incubated 3 days, and assayed for viability using the CellTiter-Glo Luminescent Cell Viability Assay (Promega) according to the manufacturer's protocol. The […] with an EnSight plate reader (Perkin Elmer). Data were normalized to the untreated control (100% viability). Each treatment was tested in two independent assays, each containing 3 replicates. The titration-viability curves of each compound were also generated by using Origin 6.0 Pro software.

p38 MAPK pathway = test system: p38 MAPK pathway; design: method as in Li et al., 2018; settings: multiple cell types; ref Li et al., 2018; cited from earlier work

Cc1cc2c(cc1C)n1nc(-c3nccs3)nc1n2CC(=O)c1ccc(Br)cc1 [14b, 1-(4-bromophenyl)-2-(6,7-dimethyl-2-(thiazol-2-yl)-4H-benzo[4,5]imidazo[1,2-b][1,2,4]triazol-4-yl)ethan-1-one]
water solubility (in words) [1]: significantly increased | Emax [2]: 58% | EC50 [2]: 3.4 µM | activity of derepressing the EGFP reporter gene silenced by DNA methylation (in words) ([2]; compared with hit compound LX-3): comparable with the hit compound LX-3 | IC50 (HEK 293 F cells): 2.1 µM

O=C(Cn1c2ccccc2n2nc(-c3cccs3)nc12)c1ccc(Br)cc1 [LX-3, 1-(4-bromophenyl)-2-(2-(thiophen-2-yl)-4H-benzo[4,5]imidazo[1,2-b][1,2,4]triazol-4-yl)ethan-1-one]
activation of the p38 MAPK pathway (p38 MAPK pathway): selectively activate the p38 MAPK pathway | Emax [2]: 79% | EC50 [2]: 2.8 µM | IC50 (HEK 293 F cells): 5.1 µM

O=C(Cn1c2ccccc2c(=O)c2ccccc21)N/N=C/c1ccc(Sc2nc3ccccc3s2)c([N+](=O)[O-])c1 [LX-4]
activation of the p38 MAPK pathway (p38 MAPK pathway): selectively activate the p38 MAPK pathway | Emax [2]: 68% | EC50 [2]: 2 µM | IC50 (HEK 293 F cells): 4.2 µM

Cc1n[nH]c(Nc2ccc(/N=N/c3ccccc3)cc2)c1[N+](=O)[O-] [LX-5]
activation of the p38 MAPK pathway (p38 MAPK pathway): selectively activate the p38 MAPK pathway | Emax [2]: 89% | EC50 [2]: 4.1 µM | IC50 (HEK 293 F cells): 4.2 µM
